Measurements as given in patent publication US20220411414A1, “INHIBITORS FOR THE B-CATENIN/B-CELL LYMPHOMA 9 (BCL9) PROTEIN-PROTEIN INTERACTION” (H. LEE MOFFITT CANCER CENTER AND RESEARCH INSTITUTE, INC., priority 2018, published 2022).

How the values were obtained:
[1] = biological target: T1, β-catenin/BCL9 (Homo sapiens, UniProt P35222); test: AlphaScreen competitive inhibition assay, β-catenin/BCL9 PPI; format: binding; conditions: for Ki: AlphaScreen
T1 construct: Full-length β-catenin and (residues 1-781) were cloned into a pET-28b vector carrying a C-terminal 6× histidine; made in house; host or cells: E. coli BL21 DE3
T1 sequence (P35222 1-781): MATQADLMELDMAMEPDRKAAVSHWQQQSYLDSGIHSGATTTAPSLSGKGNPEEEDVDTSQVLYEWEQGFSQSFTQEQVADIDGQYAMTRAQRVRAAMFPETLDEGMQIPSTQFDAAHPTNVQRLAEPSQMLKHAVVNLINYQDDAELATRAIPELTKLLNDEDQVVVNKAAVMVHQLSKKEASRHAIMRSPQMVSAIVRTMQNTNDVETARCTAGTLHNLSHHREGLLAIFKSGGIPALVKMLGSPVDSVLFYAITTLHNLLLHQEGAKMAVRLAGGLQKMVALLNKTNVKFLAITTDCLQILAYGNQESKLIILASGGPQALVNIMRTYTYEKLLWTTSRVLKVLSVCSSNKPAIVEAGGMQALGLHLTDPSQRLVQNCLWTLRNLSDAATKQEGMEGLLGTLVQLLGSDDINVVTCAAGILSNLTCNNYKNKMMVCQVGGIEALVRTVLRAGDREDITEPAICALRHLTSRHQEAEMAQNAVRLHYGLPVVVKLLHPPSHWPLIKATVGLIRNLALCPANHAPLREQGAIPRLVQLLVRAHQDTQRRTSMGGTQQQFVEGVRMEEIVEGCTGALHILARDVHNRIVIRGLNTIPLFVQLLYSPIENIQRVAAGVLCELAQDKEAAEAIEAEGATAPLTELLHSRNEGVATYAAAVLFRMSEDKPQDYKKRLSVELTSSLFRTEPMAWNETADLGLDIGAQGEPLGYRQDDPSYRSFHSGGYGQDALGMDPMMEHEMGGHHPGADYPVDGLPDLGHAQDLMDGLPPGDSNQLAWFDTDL
Text: The biochemical AlphaScreen assay was employed to evaluate the inhibitory potency of these two final products for disruption of the β-catenin/BCL9 PPI.
BCL9 peptide synthesis and purification. Human BCL9 (residues 350-375), N-terminally biotinylated human BCL9 (residues 350-375), human E-cadherin (residues 824-877), and N-terminally biotinylated human E-cadherin (residues 824-877) were synthesized by InnoPep Inc. (San Diego, Calif., www.innopep.com). All synthesized peptides were purified by HPLC with purity >95%. The structures were validated by LC/MS. The sequences are as follows (Ahx, 6-aminohexanoic acid).
For the β-catenin/BCL9 assay, 5 nM of biotinylated BCL9 and 40 nM of His6-tagged β-catenin were incubated in assay buffer at 4° C. for 30 min. For the β-catenin/E-cadherin assay, 10 nM of biotinylated human E-cadherin, and 40 nM of His6-tagged human β-catenin were added and incubated in assay buffer at 4° C. for 30 min. Different concentrations of the tested peptide or inhibitor were added and incubated in 20 μL assay buffer at 4° C. for another 1.5 h. All of the above assay plates were covered and gently mixed on an orbital shaker. The donor and acceptor beads were then added to the plates to a final concentration of 10 μg/mL in 25 μL assay buffer. The mixture was incubated for 1 h at 4° C. before detection. The IC50 value was determined by nonlinear least-square analysis of GraphPad Prism 5.0. The inhibition constant (Ki) values were derived from the IC50 values using a method reported by Nikolovska-Coleska et al (Nikolovska-Coleska, Z.; Wang, R.; Fang, X.; Pan, H.; Tomita, Y.; Li, P.; Roller, P. P.; Krajewski, K.; Saito, N. G.; Stuckey, J. A.; Wang, S. Development and optimization of a binding assay for the XIAP BIR3 domain using fluorescence polarization, Anal. Biochem. 2004, 332, 261-273.). The assays were conducted under the conditions required by Nikolovska-Coleska et al.'s equation for determining the Ki values. All of the experiments were performed in triplicate. The results were expressed as mean±standard deviation. The inhibitor selectivity for, β-catenin/BCL9 over, β-catenin/E-cahderin interactions was defined as the ratio of the respective Ki value of β-catenin/E-cadherin interactions over that of β-catenin/BCL9 interactions.

[2] = tested on: HCT116; test: MTs growth inhibition assay, HCT116; format: cell-based; conditions: Homo sapiens, HCT-116; Wnt/β-catenin-hyperactive, 72 h; read-out: MTs IC50 ± SD HCT116
Method: (§1) MTs cancer cell growth inhibition assays were conducted for 4 and 5. Three cancer cell lines with hyperactive Wnt/β-catenin signaling, SW480, HCT116, and MDA-MB-231. MTs cell viability assay. Colorectal cancer cell lines, SW480 and HCT116, and triple-negative breast cancer cell line MDA-MB-231 were seeded in 96-well plates at 4×10^3 cells/well, maintained overnight at 37° C., and incubated in the presence of 4 and 5 at various concentrations. Cell viability was monitored after 72 h using a freshly prepared mixture of 1 part phenazine methosulfate (PMS, Sigma) solution (0.92 mg/mL) and 19 parts 3-(4,5-dimethylthiazol-2-yl)-5-(3-carboxymethoxyphenyl)-2-(4-sulfophenyl)-2H-tetrazolium (MTs, Promega) solution (2 mg/mL). Cells were incubated in 10 μL of this solution at 37° C. for 3 h, and A490 was measured. The effect of each compound is expressed as the concentration required to reduce A490 by 50% (IC50) relative to vehicle-treated cells. Experiments were performed in triplicate.

[3] = tested on: MDA-MB-231; test: MTs growth inhibition assay, MDA-MB-231; format: cell-based; conditions: Homo sapiens, Wnt/β-catenin-hyperactive, 72 h, read-out: MTs IC50 ± SD MDA-MB-231
Method: as §1

[4] = tested on: TOPFlash (three wild-type Tcf binding sites) luciferase reporter; test: Wnt-responsive TOPFlash luciferase reporter assay, SW480; format: cell-based; conditions: Homo sapiens, 24 h treatment, read-out: TOPFlash IC50 ± SD SW480
Method: The TOPFlash luciferase reporter assay (in which the luciferase reporter has three wild-type Tcf4 binding sites) was performed with 4 and 5. Cell transfection and luciferase assay. FuGENE6 (E269A, Promega) 96 well plate format was used for the transfection of HEK293 and SW480 cells according to the manufacturer's instruction. HEK293 cells were co-transfected with 45 ng of TOPFlash or FOPFlash reporter gene, 135 ng pcDNA3.1-β-catenin, and 20 ng of pCMV-RL normalization reporter gene. SW480 cells were co-transfected with 60 ng of the TOPFlash or FOPFlash reporter gene and 40 ng of pCMV-RL normalization reporter. Cells were cultured in DMEM and 10% FBS at 37° C. for 24 h, and different concentrations of inhibitors or DMSO was added. After 24 h, the luciferase reporter activity was measured using the Dual-Glo system (E2940, Promega). Normalized luciferase activity in response to the treatment with 4 and 5 was compared with that obtained from the cells treated with DMSO. Experiments were performed in triplicate.

Cl.Cl.O=C(Nc1ccc(O[C@@H]2CCNC2)c(-c2cccc(-c3nn[nH]n3)c2)c1)c1ccc(O[C@H]2CCNC2)c(-c2ccc(F)c(F)c2)c1 [Compound 4, 3′,4′-difluoro-6-(((S)-pyrrolidin-3-yl)oxy)-N-(6-(((R)-pyrrolidin-3-yl)oxy)-3′-(2H-tetrazol-5-yl)-[1,1′-biphenyl]-3-yl)-[1,1′-biphenyl]-3-carboxamide dihydrochloride]
selectivity for β-catenin/BCL9 over β-catenin/E-cadherin PPIs (in words) ([1]; AlphaScreen biochemical assay): exceptionally high selectivity | Ki ([1]; Table 1, mean ± SD (n = 3)): 470 ± 140 nM | Ki ([1]; Table 2, mean ± SD (n = 3)): 470 ± 140 nM | Selectivity BCL9/cadherin ([1]; ratio of Ki β-catenin/E-cadherin over Ki β-catenin/BCL9): >1900 | IC50 [2]: 55 ± 7.4 µM | IC50 [3]: 73 ± 8.9 µM | IC50 [4]: 25 ± 2.7 µM
